Patent publication US20190256929A1, “PHARMACODYNAMIC BIOMARKERS FOR PERSONALIZED CANCER CARE USING EPIGENETIC MODIFYING AGENTS” (ORYZON GENOMICS, S.A., priority 2016, published 2019)

Tested on: small cell lung cancer cell lines
Assay: qRT-PCR time- and dosage-dependent expression change of candidate PD markers ASCL1, GRP, NOTCH1 in SCLC cell lines
Assay type: cell-based, human
Experimental: Seven small cell lung cancer cell lines were treated with 0.1 nM, 1 nM and 10 nM (trans)-N1-((1R,2S)-2-phenylcyclopropyl)cyclohexane-1,4-diamine or vehicle 24 hr, 96 hr and 7 days. Lysates were prepared by lysis in RNA lysis buffer containing 1% β-mercaptoethanol. RNA extraction was performed using a Maxwell 16 instrument and a Maxwell 16 LEV simply RNA cells Kit (Promega), according to the manufacturer's instructions. The mRNA expression levels of each cell line after treatment were then measured using qRT-PCR. The RT-qPCR reaction was conducted using a one-step kit (ABI), with a duplexed house-keeping control (Assay ID Hs02800695_m1) using the assays in the table below. The log 2 fold changes for each gene were calculated by comparing with the vehicle controlled samples at 24 hr sampling point.
Table 6 contains the dose-dependent effect on expression changes for candidate PD markers ASCL1 (Assay ID Hs04187546_g1), GRP (Assay ID Hs01107047_m1) and NOTCH1 (Assay ID Hs01062014_m1).

[1] = LSD1i responsive cell lines, qRT-PCR
[2] = NCI-H69, 0.1 nM, 24 hrs, vs vehicle at 24 hr
[3] = NCI-H69, 0.1 nM, 96 hrs, vs vehicle at 24 hr
[4] = NCI-H69, 0.1 nM, 168 hrs, vs vehicle at 24 hr
[5] = NCI-H69, 1 nM, 24 hrs, vs vehicle at 24 hr
[6] = NCI-H69, 1 nM, 96 hrs, vs vehicle at 24 hr
[7] = NCI-H69, 1 nM, 168 hrs, vs vehicle at 24 hr
[8] = NCI-H69, 10 nM, 24 hrs, vs vehicle at 24 hr
[9] = NCI-H69, 10 nM, 96 hrs, vs vehicle at 24 hr
[10] = NCI-H69, 10 nM, 168 hrs, vs vehicle at 24 hr

Structure (SMILES): N[C@H]1CC[C@H](N[C@@H]2C[C@H]2c2ccccc2)CC1 [RG6016, (trans)-N1-((1R,2S)-2-phenylcyclopropyl)cyclohexane-1,4-diamine]
- Log2_FC ASCL1 (DMS-114, 0.1 nM, 24 hrs): −0.28
- Log2_FC GRP (DMS-114, 0.1 nM, 24 hrs): 0.32
- Log2_FC NOTCH1 (DMS-114, 0.1 nM, 24 hrs): −0.47
- Log2_FC ASCL1 (DMS-114, 0.1 nM, 96 hrs): 0.18
- Log2_FC GRP (DMS-114, 0.1 nM, 96 hrs): 0.25
- Log2_FC NOTCH1 (DMS-114, 0.1 nM, 96 hrs): −0.11
- Log2_FC ASCL1 (DMS-114, 0.1 nM, 168 hrs): 0.93
- Log2_FC GRP (DMS-114, 0.1 nM, 168 hrs): 0.08
- Log2_FC NOTCH1 (DMS-114, 0.1 nM, 168 hrs): 0.08
- Log2_FC ASCL1 (DMS-114, 1 nM, 24 hrs): −0.50
- Log2_FC GRP (DMS-114, 1 nM, 24 hrs): 0.45
- Log2_FC NOTCH1 (DMS-114, 1 nM, 24 hrs): −0.47
- Log2_FC ASCL1 (DMS-114, 1 nM, 96 hrs): −0.04
- Log2_FC GRP (DMS-114, 1 nM, 96 hrs): −0.34
- Log2_FC NOTCH1 (DMS-114, 1 nM, 96 hrs): −0.23
- Log2_FC ASCL1 (DMS-114, 1 nM, 168 hrs): 1.02
- Log2_FC GRP (DMS-114, 1 nM, 168 hrs): 0.86
- Log2_FC NOTCH1 (DMS-114, 1 nM, 168 hrs): 0.08
- Log2_FC ASCL1 (DMS-114, 10 nM, 24 hrs): −0.52
- Log2_FC GRP (DMS-114, 10 nM, 24 hrs): 0.51
- Log2_FC NOTCH1 (DMS-114, 10 nM, 24 hrs): −0.35
- Log2_FC ASCL1 (DMS-114, 10 nM, 96 hrs): −0.38
- Log2_FC GRP (DMS-114, 10 nM, 96 hrs): 0.67
- Log2_FC NOTCH1 (DMS-114, 10 nM, 96 hrs): −0.30
- Log2_FC ASCL1 (DMS-114, 10 nM, 168 hrs): 0.94
- Log2_FC GRP (DMS-114, 10 nM, 168 hrs): −0.12
- Log2_FC NOTCH1 (DMS-114, 10 nM, 168 hrs): 0.13
- Regulation of ASCL1 (FIG. 8) [1]: down
- Regulation of GRP (FIG. 8) [1]: down
- Regulation of NOTCH1 (FIG. 8) [1]: up
- Log2_FC ASCL1 [2]: −0.47
- Log2_FC GRP [2]: −0.77
- Log2_FC NOTCH1 [2]: −0.17
- Log2_FC ASCL1 [3]: −0.63
- Log2_FC GRP [3]: −1.46
- Log2_FC NOTCH1 [3]: 0.57
- Log2_FC ASCL1 [4]: −0.75
- Log2_FC GRP [4]: −1.26
- Log2_FC NOTCH1 [4]: 0.94
- Log2_FC ASCL1 [5]: −0.71
- Log2_FC GRP [5]: −0.51
- Log2_FC NOTCH1 [5]: 0.26
- Log2_FC ASCL1 [6]: −1.33
- Log2_FC GRP [6]: −2.14
- Log2_FC NOTCH1 [6]: 2.26
- Log2_FC ASCL1 [7]: −1.36
- Log2_FC GRP [7]: −2.12
- Log2_FC NOTCH1 [7]: 2.38
- Log2_FC ASCL1 [8]: −0.80
- Log2_FC GRP [8]: −0.97
- Log2_FC NOTCH1 [8]: 1.33
- Log2_FC ASCL1 [9]: −1.40
- Log2_FC GRP [9]: −2.19
- Log2_FC NOTCH1 [9]: 2.42
- Log2_FC ASCL1 [10]: −1.62
- Log2_FC GRP [10]: −2.85
- Log2_FC NOTCH1 [10]: 3.22
- Log2_FC ASCL1 (NCI-H187, 0.1 nM, 24 hrs): 0.07
- Log2_FC GRP (NCI-H187, 0.1 nM, 24 hrs): 0.16
- Log2_FC NOTCH1 (NCI-H187, 0.1 nM, 24 hrs): −0.27
- Log2_FC ASCL1 (NCI-H187, 0.1 nM, 96 hrs): 0.24
- Log2_FC GRP (NCI-H187, 0.1 nM, 96 hrs): −0.29
- Log2_FC NOTCH1 (NCI-H187, 0.1 nM, 96 hrs): 0.10
- Log2_FC ASCL1 (NCI-H187, 0.1 nM, 168 hrs): 0.11
- Log2_FC GRP (NCI-H187, 0.1 nM, 168 hrs): −0.50
- Log2_FC NOTCH1 (NCI-H187, 0.1 nM, 168 hrs): 0.27
- Log2_FC ASCL1 (NCI-H187, 1 nM, 24 hrs): −0.01
- Log2_FC GRP (NCI-H187, 1 nM, 24 hrs): 0.05
- Log2_FC NOTCH1 (NCI-H187, 1 nM, 24 hrs): 0.49
- Log2_FC ASCL1 (NCI-H187, 1 nM, 96 hrs): 0.05
- Log2_FC GRP (NCI-H187, 1 nM, 96 hrs): −0.03
- Log2_FC NOTCH1 (NCI-H187, 1 nM, 96 hrs): 0.81
- Log2_FC ASCL1 (NCI-H187, 1 nM, 168 hrs): 0.16
- Log2_FC GRP (NCI-H187, 1 nM, 168 hrs): −0.59
- Log2_FC NOTCH1 (NCI-H187, 1 nM, 168 hrs): 0.95
- Log2_FC ASCL1 (NCI-H187, 10 nM, 24 hrs): 0.13
- Log2_FC GRP (NCI-H187, 10 nM, 24 hrs): −0.16
- Log2_FC NOTCH1 (NCI-H187, 10 nM, 24 hrs): 0.42
- Log2_FC ASCL1 (NCI-H187, 10 nM, 96 hrs): 0.13
- Log2_FC GRP (NCI-H187, 10 nM, 96 hrs): −0.61
- Log2_FC NOTCH1 (NCI-H187, 10 nM, 96 hrs): 0.83
- Log2_FC ASCL1 (NCI-H187, 10 nM, 168 hrs): 0.07
- Log2_FC GRP (NCI-H187, 10 nM, 168 hrs): −0.67
- Log2_FC NOTCH1 (NCI-H187, 10 nM, 168 hrs): 1.44
- Log2_FC ASCL1 (NCI-H446, 0.1 nM, 24 hrs): −0.27
- Log2_FC NOTCH1 (NCI-H446, 0.1 nM, 24 hrs): −0.04
- Log2_FC NOTCH1 (NCI-H446, 0.1 nM, 96 hrs): −0.13
- Log2_FC ASCL1 (NCI-H446, 0.1 nM, 168 hrs): −0.56
- Log2_FC NOTCH1 (NCI-H446, 0.1 nM, 168 hrs): −0.40
- Log2_FC ASCL1 (NCI-H446, 1 nM, 24 hrs): 0.00
- Log2_FC NOTCH1 (NCI-H446, 1 nM, 24 hrs): −0.02
- Log2_FC ASCL1 (NCI-H446, 1 nM, 96 hrs): −0.20
- Log2_FC NOTCH1 (NCI-H446, 1 nM, 96 hrs): 0.06
- Log2_FC ASCL1 (NCI-H446, 1 nM, 168 hrs): 0.02
- Log2_FC NOTCH1 (NCI-H446, 1 nM, 168 hrs): 0.29
- Log2_FC ASCL1 (NCI-H446, 10 nM, 24 hrs): −0.34
- Log2_FC NOTCH1 (NCI-H446, 10 nM, 24 hrs): 0.04
- Log2_FC NOTCH1 (NCI-H446, 10 nM, 96 hrs): 0.16
- Log2_FC ASCL1 (NCI-H446, 10 nM, 168 hrs): 0.58
- Log2_FC NOTCH1 (NCI-H446, 10 nM, 168 hrs): 0.42
- Log2_FC NOTCH1 (NCI-H510A, 0.1 nM, 24 hrs, vs vehicle at 24 hr): 0.53
- Log2_FC NOTCH1 (NCI-H510A, 0.1 nM, 96 hrs, vs vehicle at 24 hr): 1.93
- Log2_FC NOTCH1 (NCI-H510A, 0.1 nM, 168 hrs, vs vehicle at 24 hr): 3.00
- Log2_FC ASCL1 (NCI-H510A, 0.1 nM, 24 hrs): 0.07
- Log2_FC GRP (NCI-H510A, 0.1 nM, 24 hrs): 0.22
- Log2_FC ASCL1 (NCI-H510A, 0.1 nM, 96 hrs): 0.17
- Log2_FC GRP (NCI-H510A, 0.1 nM, 96 hrs): −0.30
- Log2_FC ASCL1 (NCI-H510A, 0.1 nM, 168 hrs): 0.03
- Log2_FC GRP (NCI-H510A, 0.1 nM, 168 hrs): −0.44
- Log2_FC ASCL1 (NCI-H510A, 1 nM, 24 hrs): −0.23
- Log2_FC GRP (NCI-H510A, 1 nM, 24 hrs): −0.30
- Log2_FC NOTCH1 (NCI-H510A, 1 nM, 24 hrs): 1.19
- Log2_FC ASCL1 (NCI-H510A, 1 nM, 96 hrs): −0.50
- Log2_FC GRP (NCI-H510A, 1 nM, 96 hrs): −1.75
- Log2_FC NOTCH1 (NCI-H510A, 1 nM, 96 hrs): 2.87
